Measurements: patent publication US20060093575A1, “Oxaliplatin anti-resistance agent” (CENTRE NATIONAL DE LA RECHERCHE SCIENTIFIQUE, priority 2002, published 2006)
Like-named read-outs stand apart in the source and are kept apart here.

Columns and labels:
[1] = system: SW620/R; assay: colorimetric cell growth test, medication incubated 48 hours; details: for relative resistance (IC50 resistant clone / IC50 parental clone): SW620/R versus SW620; for IC50: read-out: IC50 (concentration that reduces cell growth by 50%); for crossed resistance: SW620R versus SW620
[2] = system: HCT116/R1; assay: oxaliplatin resistance of variant line versus HCT116/S; assay type: cell-based; details: HCT116/R1 clone
Description: the line HCT116/R1 derived from the line HCT116 after acquisition of oxaliplatin resistance and cloning (corresponding to a clone 30 times more resistant than the sensitive reference line HCT116/S),

[3] = system: Bax in HCT116/Rev1 cells; assay: Bax activation, active-conformation antibody, flow cytometry; assay type: cell-based; details: HCT116/Rev1, 12, 24 or 48 hours with 15 μM
Method: (§1) Legend to FIGS. 4A to 4C: Detection of activation of Bax by an antibody specific for the active conformation of Bax and intracellular analysis by flow cytometry. The cells are fixed, permeabilized and then incubated with the antibody specific for the active conformation of […]. Finally visualization is carried out by incubation with the secondary antibody coupled with FITC. The labeling of untreated cells is shown by the curve in fine black line. That of treated cells (12, 24 or 48 hours with 15 μM oxaliplatin) is shown by the curves in thick black line. The appearance of strongly labeled cells (curves in thick black line shifted to the right) gives evidence of activation of Bax.

[4] = system: Bax in HCT116/R1 cells; assay: as above; assay type: cell-based; details: HCT116/R1, 12, 24 or 48 hours with 15 μM, compared to HCT116/S
Method: as §1

[5] = system: SW620R; assay: degree of apoptosis by cytofluorometry, annexine V labeling; assay type: cell-based; details: treated 48 hours
Method: (§2) A control is performed without contact with any medication (Co). The degree of apoptosis is then determined by cytofluorometry using labeling by annexine V. Independently, activation of the apoptosis effector protein Caspase 3 was evaluated in cells HCT116 and HCT116R after treatment for 24 hours with oxaliplatin in order to validate the entry into apoptosis of the cells as observed by cytofluorometry (FIG. 2C).

[6] = system: SW620; assay: colorimetric cell growth test, medication incubated 48 hours; details: for relative resistance (IC50 resistant clone / IC50 parental clone): SW620 (parental clone); for IC50: read-out: IC50 (concentration that reduces cell growth by 50%)
[7] = system: Bak in HCT116/R2 cells; assay: Bak activation, active-conformation antibody, flow cytometry; assay type: cell-based; details: HCT116/R2, 12, 24 or 48 hours with 15 μM
Method: (§3) Legend to FIGS. 5A to 5E: Detection of activation of Bak by an antibody specific for the active conformation of Bak and intracellular analysis by flow cytometry. The cells are fixed, made permeable and then incubated with the antibody specific for the active conformation of […]. Finally visualization is carried out by incubation with the secondary antibody coupled to FITC. Labeling of untreated cells is shown by the curve in the fine black line. That of treated cells (12, 24 or 48 hours with 15 μM oxaliplatin) is shown by the curves in the thick black line. The appearance of strongly labeled cells (curves in the thick black line shifted to the right) gives evidence of activation of Bak. This experiment was reproduced two times.

[8] = system: Bak in HCT116/R1 cells; assay: as above; assay type: cell-based; details: HCT116/R1, 12, 24 or 48 hours with 15 μM
Method: as §3

[9] = system: Bak in HCT116/Rev1 cells; assay: as above; assay type: cell-based; details: HCT116/Rev1, 12, 24 or 48 hours with 15 μM
Method: as §3

[10] = system: Bak in HCT116/Rev2 cells; assay: as above; assay type: cell-based; details: HCT116/Rev2, 12, 24 or 48 hours with 15 μM
Method: as §3

[11] = system: Bax in HCT116/S cells; assay: overall level of Bax expression on exposure to oxaliplatin; assay type: cell-based
Description: (§4) The overall level of Bax expression is equivalent for the lines HCT116/S, HCT116/R1 and HCT116/Rev1.

[12] = system: Bax in HCT116/Rev1 cells; assay: as above; assay type: cell-based
Description: as §4

[13] = system: Bax in HCT116/R1 cells; assay: as above; assay type: cell-based
Description: as §4

[14] = system: HCT116/Rev2; assay: oxaliplatin resistance of variant line versus HCT116/S; assay type: cell-based; details: HCT116/Rev2, after culture without oxaliplatin for 15 months
Description: the variant HCT116/Rev2 derived from the line HCT116/R2 after culture in the absence of oxaliplatin for 15 months. This variant is characterized by an only partial loss of oxaliplatin resistance (variant HCT116/Rev2 is 16 times more resistant than line HCT116/S).

[15] = system: HCT116R; details: treated 48 hours
Method: A control is performed without contact with any medication (Co).

[16] = system: Caspase 3 in HCT116R cells; assay: activation of apoptosis effector protein Caspase 3; assay type: cell-based; details: treated 24 hours
Method: as §2

[17] = system: Bax protein in HCT116R cells; assay: detection of Bax by Western blot; assay type: cell-based; details: 15 μM for 48 hours (or 50 μM for 24 hours)
Method: (§5) Legend to FIG. 1: detection of Bax by Western blot in the absence of, or under the effect of treatment, with oxaliplatin in the HCT116 model. The cells are not treated or treated with oxaliplatin at a level of 15 μM for 48 hours (or 50 μM for 24 hours) before preparation of cell lysates. Tubulin expression is used as a control of equivalent protein deposits.

[18] = system: Bax protein in HCT116 cells; assay: detection of Bax by Western blot; assay type: cell-based; details: HCT116, 15 μM for 48 hours (or 50 μM for 24 hours)
Method: as §5

[19] = system: HCT116/R; assay: colorimetric cell growth test, medication incubated 48 hours; details: for relative resistance (IC50 resistant clone / IC50 parental clone): HCT116/R versus HCT116; for IC50: read-out: IC50 (concentration that reduces cell growth by 50%); for crossed resistance: HCT116R versus HCT116
[20] = system: HCT116/Rev1; assay: oxaliplatin sensitivity of variant line versus HCT116/S; assay type: cell-based; details: HCT116/Rev1, after culture without oxaliplatin for 6 months
Description: the variant HCT116/Rev1 derived from the line HCT116/R1 after culture in the absence of oxaliplatin for 6 months.

[21] = system: HCT116; assay: colorimetric cell growth test, medication incubated 48 hours; details: for relative resistance (IC50 resistant clone / IC50 parental clone): HCT116 (parental clone); for IC50: read-out: IC50 (concentration that reduces cell growth by 50%)
[22] = system: SW620R; assay: degree of apoptosis by cytofluorometry, Mitocapture dye; assay type: cell-based; details: treated 24 hours
Method: (§6) Legend to FIGS. 3A and 3B: cells HCT116 (and R) and SW620 (and R) are treated, prior to determination of the degree of apoptosis, for 24 hours by arsenic trioxide (As), lonidamine (LND) or are left without treatment (control, Co). The degree of apoptosis is then determined by cytofluorometry after labeling with the dye “Mitocapture” which fluoresces differently in apoptotic cells and intact cells (with relation to mitochondrial integrity).

[23] = system: HCT116R; assay: as above; assay type: cell-based; details: treated 24 hours
Method: as §6

[24] = SW620/R, 48 hours, average ± SD, at least three experiments
[25] = SW620, 48 hours, average ± SD, at least three experiments
[26] = HCT116/R, 48 hours, average ± SD, at least three experiments
[27] = HCT116, 48 hours, average ± SD, at least three experiments

For `O=C1[O][Pt]2([NH][C@@H]3CCCC[C@H]3[NH]2)[O]C1=O` [Oxaliplatin, [(1R, 2R)-1,2-cyclohexanediamine-N,N′] [oxalato (2-)-O,O′] platinum], the “relative resistance (IC50 resistant clone / IC50 parental clone)” value [1] was 18.3, the “times more resistant than the original line” value ([1]; SW620R versus SW620, as stated in text) was 20 times and the IC50 [1, 24] was 62.3 ± 12.9 µM. For the same molecule, the “times more resistant than sensitive reference line HCT116/S” value [2] was 30 times, the “activation of Bax” value [3] was “return to early activation of Bax” and the “activation of Bax” value [4] was “reduced and delayed”. The “induction of apoptosis (annexine V)” value [5] was “resist induction of apoptosis”, the “relative resistance (IC50 resistant clone / IC50 parental clone)” value [6] was 1.0 and the IC50 [6, 25] was 3.4 ± 0.6 µM. The “activation of Bak” value [7] was “delayed”, the “activation of Bak” value [8] was “delayed” and the “activation of Bak” value [9] was “repeat the level of activation of Bak of the sensitive line HCT116/S”. For the same molecule, the “activation of Bak” value [10] was “repeat the level of activation of Bak of the sensitive line HCT116/S”, the “overall level of Bax expression” value [11] was “induces an over-expression of Bax” and the “overall level of Bax expression” value [12] was “induces an over-expression of Bax”. The “overall level of Bax expression” value [13] was “induces an over-expression of Bax”, the “times more resistant than line HCT116/S” value [14] was 16 times and the “induction of apoptosis (annexine V)” value [15] was “resist induction of apoptosis”. For the same molecule, the “activation of caspase 3” value [16] was “lack of activation of caspase 3”, the “Bax protein expression (Western blot)” value [17] was “does not express the Bax protein” and the “Bax protein expression (Western blot)” value [18] was “over-expresses it”. The “relative resistance (IC50 resistant clone / IC50 parental clone)” value [19] was 68.4, the IC50 [19, 26] was 21.9 ± 6.3 µM and the oxaliplatin sensitivity [20] was “comparable to HCT116/S”. For the same molecule, the “relative resistance (IC50 resistant clone / IC50 parental clone)” value [21] was 1.0 and the IC50 [21, 27] was 0.32 ± 0.08 µM.
For `CCc1c2c(nc3ccc(OC(=O)N4CCC(N5CCCCC5)CC4)cc13)-c1cc3c(c(=O)n1C2)COC(=O)[C@]3(O)CC` [Irinotecan], the IC50 ([1]; Homo sapiens, SW-620, 48 h) was 11.7 ± 2.5 µM, the crossed resistance [1] was “very little or no crossed resistance” and the IC50 ([6]; Homo sapiens, SW-620, 48 h) was 23.3 ± 0.6 µM. For the same molecule, the crossed resistance [19] was “very little or no crossed resistance”, the IC50 ([19]; Homo sapiens, HCT-116, 48 h) was 9.5 ± 4.2 µM and the IC50 ([21]; Homo sapiens, HCT-116, 48 h) was 7.7 ± 3.8 µM.
In the case of `N.N.[Cl][Pt][Cl]` [Cisplatin], the “relative resistance (IC50 resistant clone / IC50 parental clone)” value [1] is reported as “(1.4)”, the crossed resistance [1] is reported as “very little or no crossed resistance” and the IC50 [1, 24] is reported as 9 ± 1.7 µM. The “relative resistance (IC50 resistant clone / IC50 parental clone)” value [6] was “(1.0)”, the IC50 [6, 25] was 7 ± 1.7 µM and the “relative resistance (IC50 resistant clone / IC50 parental clone)” value [19] was “(2.9)”. The crossed resistance [19] was “very little or no crossed resistance”, the IC50 [19, 26] was 13.4 ± 6.6 µM and the “relative resistance (IC50 resistant clone / IC50 parental clone)” value [21] was “(1.0)”. It also gave an IC50 [21, 27] of 4.7 ± 1.8 µM.
For `O=C(O)c1nn(Cc2ccc(Cl)cc2Cl)c2ccccc12` [lonidamine], the “apoptotic induction (Mitocapture)” value [22] was “resistant to apoptotic induction” and the “apoptotic induction (Mitocapture)” value [23] was “resistant to apoptotic induction”.
